What was measured:
[1] = test system: SV40-Luc; experiment: SV40-Luc control luciferase reporter assay, SV 5A8 cell line (SV40-Luc and SV40-R-Luc), control for non-specific inhibitors; format: cell-based, human; details: SV 5A8 cells derived from SW480, 24 hours of incubation with compound, ratio Firefly/Renilla luciferase
Summary of the method: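 Dual-luciferase readout in SW480 lines with chromosomally integrated reporters, namely Tcf-4-driven firefly in Tcf 33.13 and Tcf 22C11, and SV40-driven firefly in SV 5A8, all with SV40-Renilla. Compound incubation is 24 h; IC50 comes from the normalised F/R ratio.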

[2] = test system: β-catenin/Tcf-4; experiment: cells; format: cell-based; details: 24 hours of incubation with compound, ratio Firefly/Renilla luciferase
Summary of the method: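 SW480-derived lines with integrated reporters (Tcf-4-driven firefly luciferase; SV40 firefly as specificity control; SV40 Renilla for cell number/toxicity), treated 24 hours with titrated compounds, final 0.316% DMSO. Dual-luciferase read-out; firefly/Renilla ratio as % of control, duplicate plates, IC50 (nM) from curve fit.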

[3] = Homo sapiens, SW480, 24 h, Tcf 33.13 cells derived from SW480
[4] = Homo sapiens, Tcf22C11, 24 h, Tcf 22C11 cells derived from SW480
[5] = Tcf 22C11 cells derived from SW480
[6] = Tcf 33.13 cells derived from SW480

Compound | IC50 ([1]; Homo sapiens, SV5A8, 24 h) [nM] | IC50 [2, 3] [nM] | IC50 [2, 4] [nM] | IC50 [1] [nM] | IC50 [2, 5] [nM] | IC50 [2, 6] [nM]
CNc1nc(NCc2ccc(NC(=O)c3ccc(C#N)cc3)cc2)c2cccc(C)c2n1 [Example 266, 4-cyano-N-[4-({[8-methyl-2-(methylamino)quinazolin-4-yl]amino}methyl)phenyl]benzamide] | > 4660 | 962 | 1100 |  |  | 
Cc1ccc2c(NCc3ccc(NC(=O)c4ccc(Br)cc4)cc3)nc(N(C)C)nc2c1 [Example 239, 4-bromo-N-[4-({[2-(dimethylamino)-7-methylquinazolin-4-yl]amino}methyl)phenyl]benzamide] | > 1270 | 193 | 204 |  |  | 
C=Cc1ccc2nc(N(C)C)nc(NCc3ccc(NC(=O)C4CCN(Cc5ccccc5)CC4)cc3)c2c1 [Example 75, 1-benzyl-N-[4-({[2-(dimethylamino)-6-vinylquinazolin-4-yl]amino}methyl)phenyl]-piperidine-4-carboxamide] | > 4490 | 287 | 437 |  |  | 
Cc1ccc2nc(NCc3ccco3)nc(NCc3ccc(NC(=O)C4CCN(Cc5ccccc5)CC4)cc3)c2c1 [Example 81, 1-benzyl-N-{4-[({2-[(2-furylmethyl)amino]-6-methylquinazolin-4-yl}amino)methyl]phenyl}piperidine-4-carboxamide] | > 17800 | > 8920 | > 8920 |  |  | 
O=C(Nc1ccc(CNc2nc(NC3CCCC3)nc3ccccc23)cc1)c1ccc(F)cc1 [Example 120, N-[4-({[2-(cyclopentylamino)quinazolin-4-yl]amino}methyl)phenyl]-4-fluorobenzamide] | > 1370 | 795 | 850 |  |  | 
CNc1nc(NCc2ccc(NC(=O)c3ccc(F)c(C)c3)cc2)c2ccccc2n1 [Example 17, 4-fluoro-3-methyl-N-[4-({[2-(methylamino)quinazolin-4-yl]amino}methyl)phenyl]benzamide] | > 12000 | > 6020 | 7510 |  |  | 
Cc1ccc2c(NCc3ccc(NC(=O)c4ccc(F)cc4)cc3)nc(N3CCN(c4ccccn4)CC3)nc2c1 [Example 200, 4-fluoro-N-[4-({[7-methyl-2-(4-pyridin-2-ylpiperazin-1-yl)quinazolin-4-yl]amino}methyl)phenyl]benzamide] | > 4560 | 491 | 804 |  |  | 
Cc1ccc2nc(N(C)C)nc(N[C@@H](C)c3ccc(NC(=O)c4ccc(Cl)nc4)cc3)c2c1 [Example 274, (S)-6-chloro-N-(4-(1-(2-(dimethylamino)-6-methylquinazolin-4-ylamino)ethyl)phenyl)nicotinamide] | > 9360 | 1840 | 1010 |  |  | 
COc1ccc(CN2CCC(C(=O)Nc3ccc(CNc4nc(N(C)C)nc5cc(C)ccc45)cc3)CC2)cc1 [Example 250, N-[4-({[2-(dimethylamino)-7-methylquinazolin-4-yl]amino}methyl)phenyl]-1-(4-methoxybenzyl)piperidine-4-carboxamide] | > 9280 | 213 | 373 |  |  | 
Cc1ccc2c(NCc3ccc(NC(=O)C4CCN(Cc5ccc(Cl)cc5)CC4)cc3)nc(N(C)C)nc2c1 [Example 253, 1-(4-chlorobenzyl)-N-[4-({[2-(dimethylamino)-7-methylquinazolin-4-yl]amino}methyl)phenyl]piperidine-4-carboxamide] | > 4060 | 255 | 390 |  |  | 
CNc1nc(NCc2ccc(NC(=O)c3ccc(Cl)cc3F)cc2)c2cc(C)cc(C)c2n1 [Example 35, 4-chloro-N-[4-({[6,8-dimethyl-2-(methylamino)quinazolin-4-yl]amino}methyl)phenyl]-2-fluorobenzamide] | > 21600 | > 21600 | > 21600 |  |  | 
CCNc1nc(NCc2ccc(NC(=O)c3ccc(F)cc3)cc2)c2ccccc2n1 [Example 118, N-[4-({[2-(ethylamino)quinazolin-4-yl]amino}methyl)phenyl]-4-fluorobenzamide] | > 3010 | 588 | 942 |  |  | 
CCN(CC)c1nc(NCc2ccc(NC(=O)c3ccc(F)cc3)cc2)c2ccc(C)cc2n1 [Example 211, N-[4-({[2-(diethylamino)-7-methylquinazolin-4-yl]amino}methyl)phenyl]-4-fluorobenzamide] | > 2730 | 396 | 558 |  |  | 
O=C(Nc1ccc(CNc2nc(N3CCCC3)nc3ccc(C(F)(F)F)cc23)cc1)C1CCN(Cc2ccc(F)cc2)CC1 [Example 156, 1-(4-fluorobenzyl)-N-[4-({[2-pyrrolidin-1-yl-6-(trifluoromethyl)quinazolin-4-yl]amino}methyl)phenyl]piperidine-4-carboxamide] | > 8240 | 3690 | > 4120 |  |  | 
O=C(Nc1ccc(CNc2nc(NC3CCC3)nc3ccccc23)cc1)c1ccc(F)cc1 [Example 115, N-[4-({[2-(cyclobutylamino)quinazolin-4-yl]amino}methyl)phenyl]-4-fluorobenzamide] | > 2830 | 991 | 1380 |  |  | 
Cc1ccc2nc(N(C)C)nc(NCc3ccc(NC(=O)c4ccc(Cl)cc4)cc3)c2c1 [Example 53, 4-chloro-N-[4-({[2-(dimethylamino)-6-methylquinazolin-4-yl]amino}methyl)phenyl]benzamide] | > 2800 | 306 | 462 |  |  | 
CNc1nc(N[C@@H](C)c2ccc(NC(=O)c3ccc(F)cc3)cc2)c2cccc(C)c2n1 [Example 275, (S)-4-fluoro-N-(4-(1-(8-methyl-2-(methylamino)quinazolin-4-ylamino)ethyl)phenyl)benzamide] | > 1240 | 549 | 522 |  |  | 
CCCCN1CCC(C(=O)Nc2ccc(CNc3nc(N(C)C)nc4cc(C)ccc34)cc2)CC1 [Example 249, 1-butyl-N-[4-({[2-(dimethylamino)-7-methylquinazolin-4-yl]amino}methyl)phenyl]piperidine-4-carboxamide] | > 10500 | 1170 | 1480 |  |  | 
Cc1ccc2c(NCc3ccc(NC(=O)C4CCN(Cc5ccccc5F)CC4)cc3)nc(N(C)C)nc2c1 [Example 252, N-[4-({[2-(dimethylamino)-7-methylquinazolin-4-yl]amino}methyl)phenyl]-1-(2-fluorobenzyl)piperidine-4-carboxamide] | > 8340 | 332 | 568 |  |  | 
CN(C)c1nc(NCc2ccc(NC(=O)c3ccc(Cl)nc3)cc2)c2ccc(I)cc2n1 [Example 110, 6-chloro-N-[4-({[2-(dimethylamino)-7-iodoquinazolin-4-yl]amino}methyl)phenyl]nicotinamide] | > 16800 | 1190 | 1760 |  |  | 
CNc1nc(NCc2ccc(NC(=O)C3CCN(Cc4ccc(F)cc4)CC3)cc2)c2cc(C(F)(F)F)ccc2n1 [Example 160] |  |  |  | > 4410 | 1450 | > 2210
CNc1nc(NCc2ccc(NC(=O)c3cc(F)cc(F)c3)cc2)c2cc(C)ccc2n1 [Example 41, 3,5-difluoro-N-[4-({[6-methyl-2-(methylamino)quinazolin-4-yl]amino}methyl)phenyl]benzamide] | > 5770 | 1650 | 2320 |  |  | 
N-{4-[({6,8-dimethyl-2-[(3S)-3-methylpiperazin-1-yl]quinazolin-4-yl}amino)methyl]phenyl}-4-fluorobenzamide [Example 50] |  |  |  | > 5010 | > 1250 | 1490
Cc1ccc2c(NCc3ccc(NC(=O)c4ccc(F)cc4)cc3)nc(N3CCN(CC(=O)NC(C)C)CC3)nc2c1 [Example 219, 4-fluoro-N-(4-{[(2-{4-[2-(isopropylamino)-2-oxoethyl]piperazin-1-yl}-7-methylquinazolin-4-yl)amino]methyl}phenyl)benzamide] | > 14600 | 1420 | 1800 |  |  | 
CNc1nc(NCc2ccc(NC(=O)c3cccnc3Cl)cc2)c2ccccc2n1 [Example 7, 2-chloro-N-[4-({[2-(methylamino)quinazolin-4-yl]amino}methyl)phenyl]nicotinamide] | > 23900 | > 2980 | > 2980 |  |  | 
CNc1nc(N[C@H](C)c2ccc(NC(=O)c3ccc(F)cc3)cc2)c2cccc(C)c2n1 [Example 276, (R)-4-fluoro-N-(4-(1-(8-methyl-2-(methylamino)quinazolin-4-ylamino)ethyl)phenyl)benzamide] | > 2490 | 494 | 653 |  |  | 
CNc1nc(NCc2ccc(NC(=O)c3ccc(F)c(F)c3)cc2)c2c(C)cccc2n1 [Example 189, 3,4-difluoro-N-[4-({[5-methyl-2-(methylamino)quinazolin-4-yl]amino}methyl)phenyl]benzamide] | > 4570 | 1140 | 1830 |  |  | 
Cc1ccc2c(NCc3ccc(NC(=O)c4ccc(Cl)cc4)cc3)nc(NCCc3ccccn3)nc2c1 [Example 197, 4-chloro-N-{4-[({7-methyl-2-[(2-pyridin-2-ylethyl)amino]quinazolin-4-yl}amino)methyl]phenyl}benzamide] | > 2390 | 382 | 376 |  |  | 

— patent US20090004185A1, “AMINO-SUBSTITUTED QUINAZOLINE DERIVATIVES AS INHIBITORS OF BETA-CATENIN/TCF-4 PATHWAY AND CANCER TREATMENT AGENTS” (WYETH, priority 2007, published 2009)
